Key:
[1] = tested on: transient focal cerebral ischemia by middle cerebral artery occlusion (MCAO); experiment: Transient focal cerebral ischemia by middle cerebral artery occlusion (MCAO) in rats, infarct volume after gas inhalation; assay type: in vivo; settings: rat MCAO, compared to air (mixture No. 1); for post-ischemic volume of cortical infarction: FIG. 3b; for post-ischemic volume of striatal infarction: FIG. 3c; for post-ischemic volume of oedema: FIG. 3d
Procedure: On day 1, focal ischemia was induced in each of the rats by middle cerebral artery occlusion (MCAO), for a period of 1 h 30 minutes.
The transient focal cerebral ischemia by MCAO is obtained conventionally by introducing a flexible nylon thread 1, represented diagrammatically in FIG. 1 (length 6.5 mm, diameter 180 μm), a portion 2 of the proximal end of which has a diameter greater than that of the thread (length 3 mm, diameter 380 μm), into the vascular system of the rat, as far as the region of the ipsilateral hemisphere so as to cause an embolism therein, i.e. an ischemia.
Next, the rats are reperfused for 10 to 20 minutes, and are then made to inhale several mixtures of gases, namely: • mixture No. 1: air (control) • mixture No. 2: N2O (75% vol), the remainder being oxygen (25%) • mixture No. 3: xenon (50% vol), the remainder being oxygen (20 to 25%) and nitrogen (30 to 25%), respectively • mixture No. 4: xenon (75% vol), the remainder being oxygen (25%).
On day 2, i.e. 24 hours after reperfusion, the rats are killed, the brains are recovered and frozen, and thin sections 40 μm thick are cut and then stained with cresyl violet, as shown in FIG. 5.
The volume of neuronal death is calculated, from the sections obtained after staining, in a conventional manner using an appropriate, commercially available conventional program.
In fact, as shown diagrammatically in FIG. 2, the cerebral ischemia engenders, in general, in 24 hours, an infarction in the region which has been subjected to ischemia (penumbra), leading to neuronal death in the brain cells present in a considerable portion of this region.

[2] = tested on: brain receptors of the NMDA type; experiment: Complementary examination of neurotoxic effects of xenon and N2O versus air on NMDA-type brain receptors (FIG. 4); assay type: in vivo
Procedure: Based on this observation, complementary examinations were carried out in order to determine the neurotoxic effects of the xenon and of the nitrous oxide (N2O), at various amounts, compared to air, on brain receptors of the NMDA type.

[3] = tested on: glutamergic receptors for N-methyl-D-aspartate, NMDA; settings: in vitro, literature (Franks et al.; Jevtovic-Todorovic et al.; Yamakura and Harris); cited from earlier work

Row | Compound | post-ischemic volume of cortical infarction [1] | post-ischemic volume of striatal infarction [1] | post-ischemic volume of oedema [1] | volume of deteriorated NMDA receptors ([2]; dose of 50% or 75% by volume, compared to control (air), FIG. 4) | neuroprotection, comparison between doses ([2]; xenon at 50% by volume compared to xenon at 75%) | behaviour at NMDA receptors [3] | neuroprotection, comparison between doses ([2]; N2O at 75% by volume compared to N2O at 50%) | volume of deteriorated NMDA receptors ([2]; in vivo)
1 | [Xe] [xenon] | decrease | decrease | decrease | smaller volume | more neuroprotective | low-affinity antagonists |  | 
2 | [N-]=[N+]=O [N2O, nitrous oxide] | decrease | decrease | decrease |  |  | low-affinity antagonists | more neuroprotective | smaller volume

Reference: US7405241B2, “Use of N2O in the treatment of post-ischemic brain cell deterioration” (Air Liquide Sante (International), priority 2003, dated 2008)
